Target: T1, P2X4 receptor (Homo sapiens, UniProt Q99571)
T1 construct: expressed in transfected cells; host or cells: 1321N1 astrocytoma cells, retroviral vector pQCXIN, G418 selection, monoclones
T1 sequence (Q99571 1-388): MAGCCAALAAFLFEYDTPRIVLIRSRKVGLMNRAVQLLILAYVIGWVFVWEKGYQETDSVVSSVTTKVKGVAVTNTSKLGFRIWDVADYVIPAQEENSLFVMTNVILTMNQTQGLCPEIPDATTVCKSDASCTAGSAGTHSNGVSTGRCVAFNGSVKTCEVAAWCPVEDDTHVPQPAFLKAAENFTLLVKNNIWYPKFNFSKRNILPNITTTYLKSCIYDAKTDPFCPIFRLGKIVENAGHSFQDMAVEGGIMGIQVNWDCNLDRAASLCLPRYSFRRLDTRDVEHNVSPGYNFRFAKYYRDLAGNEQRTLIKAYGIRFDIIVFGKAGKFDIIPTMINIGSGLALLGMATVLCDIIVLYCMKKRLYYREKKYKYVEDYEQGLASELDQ
Test: Measurement of Ca2+ influx in transfected 1321N1 astrocytoma cells (P2X4 inhibitory potency)
Format: cell-based
Conditions: agonist-mediated Ca2+ influx, FLUO-4, 1321N1 astrocytoma cells; antagonists added 30 min before agonist
Source text: The rat, mouse, and human P2X4 DNA, respectively, were cloned into the retroviral vector pQCXIN. 1321N1 Astrocytoma cells were transfected with the DNA using a retroviral system as described previously. In brief, GP+envAM12 packaging cells were first transiently co-transfected with a retroviral vector to generate the retrovirus and with a vesicular stomatitis virus G protein (VSV-G) to pseudotype the virus and to increase their infection efficiency. The viruses containing the rat, mouse or human P2X4 receptor sequence were then used to create a stable astrocytoma cell line. P2X4 receptor-expressing cells were selected with G418 ([…]).
The selection of monoclones for rat and human P2X4 receptors was performed using the limited dilution method by plating the cells at very low cell densities (1 cell clone per well in 96-well plates). Cells were counted, and then several dilutions were made to obtain a concentration of […]. We subsequently added 100 µL of the diluted cell suspension into each well expecting to obtain on average 1 cell per well. After a few days the wells that contained single clones were labeled and transferred into 24 well plates. More than 20 clones were selected for each cell line and characterized in calcium influx assay.
Measurement of Ca^2+ influx in transfected 1321N1 astrocytoma cells
P2X receptor function was determined on the basis of agonist-mediated increases in cytosolic Ca^2+ concentration. The fluorescent Ca^2+chelating dye FLUO-4 was used as an indicator of the relative levels of intracellular Ca^2+ in a 96-well format using a fluorescence imaging plate reader (Novostar, BMG, Germany). Cells were grown to confluence in 96-well black-walled tissue culture plates and loaded with FLUO-4 AM ([…]) in Hank's balanced salt solution (HBSS, containing 10 mM HEPES, pH 7.3, and 1% Pluronic® F127) for 1 h at 23° C. After incubation, the loaded cells were washed with the same buffer to remove extracellular FLUO-4 AM. Compound solutions were prepared in HBSS (containing 20 mM HEPES, pH 7.3) or DMSO depending on their solubility. […] Fluorescence intensity was measured at 520 nm for 30 s at 0.4 s intervals. Buffer or test compounds were injected sequentially into separate wells using the automatic pipetting device. At least three independent experiments were performed in triplicate or duplicate. Antagonists were added 30 min before the addition of agonists. The assays were performed in a final volume of 200 μL. Compounds were tested at 7-8 different concentrations spanning three orders of magnitude of concentrations. Statistical significances were calculated using the unpaired two-tailed t-test.

## COc1ccc(-c2nc(C)ns2)cc1NCC(=O)c1c[nH]c2c3c(ccc12)CCC3 [Example 104, 2-((2-methoxy-5-(3-methyl-1,2,4-thiadiazol-5-yl)phenyl)amino)-1-(1,6,7,8-tetrahydrocyclopenta[g]indol-3-yl)ethan-1-one]
  IC50: 20 to 39 nM

## CC(=O)c1cccc2c1CCN2C(=O)CNc1cc(-c2nc(C)ns2)ccc1C [Example 37, 1-(4-acetylindolin-1-yl)-2-((2-methyl-5-(3-methyl-1,2,4-thiadiazol-5-yl)phenyl)amino)ethan-1-one]
  IC50: 20 to 39 nM

## Cc1nsc(-c2ccc(C)c(NCC(=O)c3cn4c5c(cccc35)C(=O)NCC4)c2)n1 [Example 99, 7-((2-methyl-5-(3-methyl-1,2,4-thiadiazol-5-yl)phenyl)glycyl)-3,4-dihydro-[1,4]diazepino[6,7,1-hi] indol-1(2H)-one]
  IC50: 20 to 39 nM

## CCc1nsc(-c2ccc(C)c(NCC(=O)N3CCc4c(O)cccc43)c2)n1 [Example 84, 2-((5-(3-ethyl-1,2,4-thiadiazol-5-yl)-2-methylphenyl)amino)-1-(4-hydroxyindolin-1-yl) ethan-1-one]
  IC50: 0.1 to 19 nM

## COc1cccc2c1CCN2C(=O)CNc1cc(-c2nc(C)no2)ccc1C [Example 2, 1-(4-methoxyindolin-1-yl)-2-((2-methyl-5-(3-methyl-1,2,4-oxadiazol-5-yl)phenyl)-amino)ethan-1-one]
  IC50: 0.1 to 19 nM

## Cc1noc(-c2ccc(F)c(NCC(=O)N3CCc4c(N)cccc43)c2)n1 [Example 75, 1-(4-aminoindolin-1-yl)-2-((2-fluoro-5-(3-methyl-1,2,4-oxadiazol-5-yl)phenyl)-amino)ethan-1-one]
  IC50: 70 to 99 nM

## Cc1nsc(-c2ccc(C)c(NCC(=O)c3cn4c5c(cccc35)OCC(C)(O)C4)c2)n1 (stereo not drawn) [Example 105, 1-(3-hydroxy-3-methyl-3,4-dihydro-2H-[1,4]oxazepino[2,3,4-hi]indol-7-yl)-2-((2-methyl-5-(3-methyl-1,2,4-thiadiazol-5-yl)phenyl)-amino)ethan-1-one]
  IC50: 20 to 39 nM

## COc1ccc2c(C(=O)CNc3cc(-c4nc(C)ns4)ccc3C)c[nH]c2n1 [Example 95, 1-(6-methoxy-1H-pyrrolo[2,3-b]pyridin-3-yl)-2-((2-methyl-5-(3-methyl-1,2,4-thiadiazol-5-yl)phenyl)amino)ethan-1-one]
  IC50: 0.1 to 19 nM

## Cc1nsc(-c2ccc(C)c(NCC(=O)N3CCc4c3ccnc4C(C)O)c2)n1 (stereo not drawn) [Example 92, 1-(4-(1-hydroxyethyl)-2,3-dihydro-1H-pyrrolo[3,2-c]pyridin-1-yl)-2-((2-methyl-5-(3-methyl-1,2,4-thiadiazol-5-yl)phenyl)amino)ethan-1-one]
  IC50: > 100 nM

## Cc1nsc(-c2ccc(C)c(NCC(=O)N3CCc4c3cccc4N3C(=O)CCC3=O)c2)n1 [Example 17, 1-(1-((2-methyl-5-(3-methyl-1,2,4-thiadiazol-5-yl)phenyl)glycyl)indolin-4-yl) pyrrolidine-2,5-dione]
  IC50: 0.1 to 19 nM

## Cc1nsc(-c2ccc(C)c(NCC(=O)N3CCc4ccccc43)c2)n1 [Example 52, 1-(indolin-1-yl)-2-((2-methyl-5-(3-methyl-1,2,4-thiadiazol-5-yl)phenyl)amino)ethan-1-one]
  IC50: 40 to 69 nM

## Cc1nsc(-c2ccc(C)c(NCC(=O)N3CCc4c(OCCOCCO)cccc43)c2)n1 [Example 31, 1-(4-(2-(2-hydroxyethoxy)-ethoxy)indolin-1-yl)-2-((2-methyl-5-(3-methyl-1,2,4-thiadiazol-5-yl)phenyl)-amino)ethan-1-one]
  IC50: 20 to 39 nM

## Cc1ccc(-c2ccc(C)c(NCC(=O)N3CCc4c3cccc4N3C4CCC3CC(O)C4)c2)o1 (stereo not drawn) [Example 36, 1-(4-(3-hydroxy-8-azabicyclo[3.2.1]octan-8-yl)indolin-1-yl)-2-((2-methyl-5-(5-methylfuran-2-yl)phenyl)amino)ethan-1-one]
  IC50: 20 to 39 nM

## Cc1noc(-c2ccc(C)c(NCC(=O)N3CCc4c(O)cccc43)c2)n1 [Example 86, 1-(4-hydroxyindolin-1-yl)-2-((2-methyl-5-(3-methyl-1,2,4-oxadiazol-5-yl)phenyl)amino)-ethan-1-one]
  IC50: 40 to 69 nM

## Cc1nsc(-c2ccc(C)c(NCC(=O)N3CCc4c(NC(=O)[C@H]5CCCN5)cccc43)c2)n1 [Example 81, (R)-N-(1-((2-methyl-5-(3-methyl-1,2,4-thiadiazol-5-yl)phenyl)glycyl)indolin-4-yl) pyrrolidine-2-carboxamide]
  IC50: 0.1 to 19 nM

## COc1ccc2c(n1)CCN2C(=O)CNc1cc(-c2nc(C)ns2)ccc1C [Example 42, 1-(5-methoxy-2,3-dihydro-1H-pyrrolo[3,2-b]pyridin-1-yl)-2-((2-methyl-5-(3-methyl-1,2,4-thiadiazol-5-yl)phenyl)-amino)ethan-1-one]
  IC50: 20 to 39 nM

## COc1cccc2c1CCN2C(=O)CNc1cc(-c2nc(C)ns2)ccc1C [Example 1, 1-(4-methoxyindolin-1-yl)-2-((2-methyl-5-(3-methyl-1,2,4-thiadiazol-5-yl)phenyl)-amino)ethan-1-one]
  IC50: 0.1 to 19 nM

## CCc1nsc(-c2ccc(C)c(NCC(=O)N3CCc4c(N5CCNCC5)cccc43)c2)n1 [Example 72, 2-((5-(3-ethyl-1,2,4-thiadiazol-5-yl)-2-methylphenyl)amino)-1-(4-(piperazin-1-yl)indolin-1-yl)ethan-1-one]
  IC50: 20 to 39 nM

## Cc1nsc(-c2ccc(C)c(NCC(=O)N3CCc4c3cccc4N3C(=O)C=CC3=O)c2)n1 [Example 79, 1-(1-((2-methyl-5-(3-methyl-1,2,4-thiadiazol-5-yl)phenyl)-glycyl)indolin-4-yl)-1H-pyrrole-2,5-dione]
  IC50: 0.1 to 19 nM

## CCc1noc(-c2ccc(OC)c(NCC(=O)c3cn(C)c4cc(OC)c(F)cc34)c2)n1 [Example 98, 2-((5-(3-ethyl-1,2,4-oxadiazol-5-yl)-2-methoxyphenyl)amino)-1-(5-fluoro-6-methoxy-1-methyl-1H-indol-3-yl) ethan-1-one]
  IC50: 0.1 to 19 nM

## COc1ccc(-c2nc(C)ns2)cc1NCC(=O)N1CCc2c(OC)cccc21 [Example 4, 2-((2-methoxy-5-(3-methyl-1,2,4-thiadiazol-5-yl)phenyl)-amino)-1-(4-methoxyindolin-1-yl)ethan-1-one]
  IC50: 20 to 39 nM

## Cc1nsc(-c2ccc(C)c(NCC(=O)N3CCc4c(NCC(C)(C)O)cccc43)c2)n1 [Example 44, 1-(4-((2-hydroxy-2-methylpropyl)amino)indolin-1-yl)-2-((2-methyl-5-(3-methyl-1,2,4-thiadiazol-5-yl)phenyl)-amino)ethan-1-one]
  IC50: 20 to 39 nM

## CCc1nsc(-c2ccc(F)c(NCC(=O)N3CCc4c(C(C)O)cccc43)c2)n1 (stereo not drawn) [Example 21, 2-((5-(3-ethyl-1,2,4-thiadiazol-5-yl)-2-fluorophenyl)amino)-1-(4-(1-hydroxyethyl)indolin-1-yl)ethan-1-one]
  IC50: 0.1 to 19 nM

## Cc1ccc(-c2nc(C3CC3)ns2)cc1NCC(=O)N1CCc2c(OCC(C)(C)O)cccc21 [Example 38, 2-((5-(3-cyclopropyl-1,2,4-thiadiazol-5-yl)-2-methylphenyl)amino)-1-(4-(2-hydroxy-2-methylpropoxy)-indolin-1-yl)ethan-1-one]
  IC50: 20 to 39 nM

## Cc1nsc(-c2ccc(N3CCCC3)c(NCC(=O)N3CCc4c(OCC(C)(C)O)cccc43)c2)n1 [Example 24, 1-(4-(2-hydroxy-2-methylpropoxy)indolin-1-yl)-2-((5-(3-methyl-1,2,4-thiadiazol-5-yl)-2-(pyrrolidin-1-yl)phenyl)-amino)ethan-1-one]
  IC50: 0.1 to 19 nM

## Cc1nsc(-c2ccc(C)c(NCC(=O)N3CCc4c3cccc4N3C(=O)CCS3(=O)=O)c2)n1 [Example 13, 2-(1-((2-methyl-5-(3-methyl-1,2,4-thiadiazol-5-yl)phenyl)glycyl)indolin-4-yl) isothiazolidin-3-one 1,1-dioxide]
  IC50: 0.1 to 19 nM

## O=C(CNc1cccc(-c2ccccn2)c1)c1c[nH]c2cc(F)c(F)cc12 [Example 122, 1-(5,6-difluoro-1H-indol-3-yl)-2-((3-(pyridin-2-yl)phenyl)amino)ethan-1-one]
  IC50: > 100 nM
